≈ marks a conversion by molar mass, not a printed value. Where two headings read alike, the source gives them in different places.
What was measured:
TOSV = assay: microbe, parasite or virus in culture; assay type: cell-based, Toscana virus
[1] = Cytotoxicity assay (CellTiter-Blue), Vero E6 cells; settings: for CC50: cell line not given; for CC50 at 4 days: monkey (simian), Vero E6 cells, CC50, Simian Vero E6 cells, value repeated under each virus
[2] = Metabolic stability in S9 fraction
[3] = Cytotoxicity assay, L929 cells; settings: mouse
VEEV [4] = assay: microbe, parasite or virus in culture; assay type: cell-based; settings: Venezuelan equine encephalitis virus, Vero C1008, read-out: IC50 VEEV
RVFV [5] = assay: microbe, parasite or virus in culture; assay type: cell-based; settings: Rift Valley fever virus, L929, in Mus musculus, read-out: IC50 RVFV
VEEV [6] = assay: microbe, parasite or virus in culture; assay type: cell-based; settings: Venezuelan equine encephalitis virus, L929, in Mus musculus, read-out: IC50 VEEV
[7] = Hepatic microsome stability; settings: 1 μm, 37° C., 0.5 mg/mL microsomes of mouse liver; cofactor: NADPH
Plasma stability = settings: 1 μm, 37° C., mouse plasma diluted with 1 volume of PBS pH 7.4
TBEV [8] = assay: microbe, parasite or virus in culture; assay type: cell-based; settings: Tick-borne encephalitis virus, Vero C1008, read-out: IC50 TBEV
VEEV [9] = assay: microbe, parasite or virus in culture; assay type: cell-based; settings: Venezuelan equine encephalitis virus, HEK293, read-out: IC50 VEEV
RVFV [10] = assay: microbe, parasite or virus in culture; assay type: cell-based; settings: Rift Valley fever virus, BHK-21, in Mesocricetus auratus, read-out: IC50 RVFV
[11] = Hydrolysis study in mouse liver extract; settings: FIG. 1, FIG. 2
RVFV [12] = assay: microbe, parasite or virus in culture; assay type: cell-based; settings: Rift Valley fever virus, Vero C1008, read-out: IC50 RVFV
TBEV [13] = assay: microbe, parasite or virus in culture; assay type: cell-based; settings: Tick-borne encephalitis virus, L929, in Mus musculus, read-out: IC50 TBEV
YFV [14] = assay: microbe, parasite or virus in culture; assay type: cell-based; settings: Yellow fever virus, BHK-21, in Mesocricetus auratus, read-out: IC50 YFV
[15] = Log D (PBS pH 7.4/octanol)
HAZV = assay: microbe, parasite or virus in culture; assay type: cell-based; settings: Hazara virus, Vero C1008, read-out: IC50 HAZV
Solubility in PBS pH 7.4 = settings: PBS pH 7.4, 20 °C, pH 7.4, aqueous buffer
TAHV = assay: microbe, parasite or virus in culture; assay type: cell-based; settings: Tahyna virus, Vero C1008, read-out: IC50 TAHV
DENV = assay: Virus yield reduction assay, DENV in Vero E6 cells; assay type: cell-based; settings: Dengue virus, Vero C1008; Simian Vero E6 cells; FLAVI virus family
YFV [16] = assay: microbe, parasite or virus in culture; assay type: cell-based; settings: Yellow fever virus, Vero C1008, read-out: IC50 YFV
RVFV [17] = assay: microbe, parasite or virus in culture; assay type: cell-based; settings: Rift Valley fever virus, HEK293, read-out: IC50 RVFV
ZIKV = assay: Virus yield reduction assay, ZIKV in Vero E6 cells; assay type: cell-based; settings: Zika virus, Vero C1008; Simian Vero E6 cells; FLAVI virus family
TBEV [18] = assay: microbe, parasite or virus in culture; assay type: cell-based; settings: Tick-borne encephalitis virus, SW13, read-out: IC50 TBEV
RVFV [19] = assay: microbe, parasite or virus in culture; assay type: cell-based; settings: Rift Valley fever virus, SW13, read-out: IC50 RVFV
Plasma protein binding = settings: mouse, plasma diluted with 1 volume of PBS pH 7.4, pH 7.4
VEEV [20] = assay: microbe, parasite or virus in culture; assay type: cell-based; settings: Venezuelan equine encephalitis virus, SW13, read-out: IC50 VEEV
[21] = Toscana virus, Vero C1008, read-out: IC50 (TOSV)

CCC(C)(C)c1ccccc1OCCOC(=O)Nc1ccccc1C(=O)O [Example 13]
IC50 (TOSV; [21]): 128 nM
CC50 [1]: > 25000 nM
Metabolic stability in a S9 fraction (rat) [2]: high metabolic stability

CCC(C)c1ccccc1OCc1nc2ccc(C)cc2c(=O)o1 (stereo not shown) [Example 20]
IC50 (TOSV; [21]): 600 nM
CC50 [1]: 75000 nM

O=C(COc1ccccc1Cc1ccccc1)Nc1ccc2c(c1C(=O)O)OC(F)(F)O2 [Example 17]
IC50 (TOSV; [21]): 6000 nM
CC50 [1]: 32000 nM

Cc1ccc2nc(COc3ccc(Cl)cc3Cc3ccccc3)oc(=O)c2c1 [Example 21]
IC50 (TOSV; [21]): 800 nM
CC50 [1]: > 100000 nM

CCC(C)c1ccccc1OCCCC(=O)Nc1cnccc1C(=O)O (stereo not shown) [Example 15]
IC50 (TOSV; [21]): ~500 nM
CC50 [1]: > 25000 nM

CCC(=O)Nc1ccc(-c2ccc(-c3ccccc3)cc2)cc1C(=O)O [Example 6]
IC50 (TOSV; [21]): 120 nM
CC50 at 4 days [1]: 10000 nM
CC50 [3]: 15000 nM
IC50 (VEEV [4]): 120 nM
IC50 (RVFV [5]): 3 nM
IC50 (VEEV [6]): 9 nM
Hepatic microsome stability [% remaining at 1 h] [7]: 49 ± 0 % remaining at 1 h
Plasma stability [% remaining at 2 h] (Plasma stability): 94 ± 6 % remaining at 2 h
IC50 (TBEV [8]): 120 ± 10 nM
IC50 (VEEV [9]): 19 nM
IC50 (RVFV [10]): > 200 nM
Hydrolysis in mouse liver extract (amide bond stability) [11]: more stable
IC50 (RVFV [12]): 140 nM
IC50 (TBEV [13]): 9 nM
IC50 (YFV [14]): > 200 nM
logD [15]: 3.07 ± 0.05
IC50 (HAZV): 120 nM
solubility (Solubility in PBS pH 7.4): 61 ± 17 µM (≈ 21.1 µg/mL)

CCC(C)c1ccccc1OCC(=O)Nc1ccc2c(c1C(=O)O)OC(F)(F)O2 (stereo not shown) [Example 16]
IC50 (TOSV; [21]): 4000 nM
CC50 [1]: 37000 nM

CS(N)(=O)=O [methyl sulfonamide]
IC50 (TOSV; read-out: IC50 (TOSV)): 1500 nM

CCC(=O)Nc1ccc(-c2ccc(-c3ccccc3)c(F)c2)cc1C(=O)O [Example 7]
IC50 (TOSV; [21]): 110 nM
CC50 at 4 days [1]: 15000 nM
CC50 [3]: 9000 nM
IC50 (VEEV [4]): 120 nM
IC50 (TAHV): 120 nM
IC50 (RVFV [5]): 5.5 nM
IC50 (VEEV [6]): 7 nM
IC50 (TBEV [8]): 13 nM
IC50 (VEEV [9]): 14 nM
IC50 (RVFV [12]): 120 nM
IC50 (TBEV [13]): 4 nM
IC50 (HAZV): 70 nM

CCC(C)c1ccccc1OCCCC(=O)Nc1ccccc1C(=O)O (racemic) [Example 3]
IC50 (DENV): 110 nM
IC50 (TOSV; [21]): 70 ± 10 nM
CC50 at 4 days [1]: 18500 ± 1500 nM
IC50 (YFV [16]): 110 nM
IC50 (RVFV [17]): 15 nM
IC50 (VEEV [4]): 30 nM
IC50 (ZIKV): 110 nM
IC50 (TAHV): 40 nM
IC50 (RVFV [5]): 170 nM
IC50 (VEEV [6]): 600 nM
Plasma stability [% remaining at 2 h] (Plasma stability): 85 ± 4 % remaining at 2 h
IC50 (TBEV [8]): 80 nM
IC50 (VEEV [9]): 50 nM
IC50 (TBEV [18]): 100 nM
Hydrolysis in mouse liver extract (amide bond stability) [11]: cleavage of the amide bond
IC50 (RVFV [12]): 160 nM
IC50 (TBEV [13]): 300 nM
logD [15]: 2.59 ± 0.03
IC50 (RVFV [19]): 50 nM
fraction unbound at 1 μM (Plasma protein binding): 0.01
IC50 (VEEV [20]): 130 nM
IC50 (HAZV): 110 nM
solubility (Solubility in PBS pH 7.4): 1540 ± 50 µM (≈ 547 µg/mL)

From patent publication US20220227720A1, “DHODH INHIBITORS AND THEIR USE AS ANTIVIRAL AGENTS” (priority 2019, published 2022)
